This is an account of results in paper PMC7018746, “An efficient and targeted synthetic approach towards new highly substituted 6-amino-pyrazolo[1,5-a]pyrimidines with α-glucosidase inhibitory activity” (Scientific Reports, 2020).

Data set [1] is described as follows: Cytotoxicity studies, MDA-MB-231. The following applies: human, MDA-MB-231 breast cancer cells. In kind it is cell-based. As for the experimental part:
(§1) The cytotoxicity of some of potent compounds including 3d, 3m, 3v, and 3af was evaluated through use of the breast cancer cell line MDA-MB-231 and human pancreatic cancer cell line PANC-1.

In data set [2] the test system is breast cancer cell line MDA-MB-231. The data set can be described thus: Cytotoxicity studies, MDA-MB-231. Conditions: MDA-MB-231, at concentration of 100 µM. The class given is cell-based. As for the experimental part: as §1
The target of a further data set is T1, α-glucosidase (Saccharomyces cerevisiae, UniProt P53341).
T1 construct: purchased Sigma-Aldrich
T1 sequence (P53341 whole entry): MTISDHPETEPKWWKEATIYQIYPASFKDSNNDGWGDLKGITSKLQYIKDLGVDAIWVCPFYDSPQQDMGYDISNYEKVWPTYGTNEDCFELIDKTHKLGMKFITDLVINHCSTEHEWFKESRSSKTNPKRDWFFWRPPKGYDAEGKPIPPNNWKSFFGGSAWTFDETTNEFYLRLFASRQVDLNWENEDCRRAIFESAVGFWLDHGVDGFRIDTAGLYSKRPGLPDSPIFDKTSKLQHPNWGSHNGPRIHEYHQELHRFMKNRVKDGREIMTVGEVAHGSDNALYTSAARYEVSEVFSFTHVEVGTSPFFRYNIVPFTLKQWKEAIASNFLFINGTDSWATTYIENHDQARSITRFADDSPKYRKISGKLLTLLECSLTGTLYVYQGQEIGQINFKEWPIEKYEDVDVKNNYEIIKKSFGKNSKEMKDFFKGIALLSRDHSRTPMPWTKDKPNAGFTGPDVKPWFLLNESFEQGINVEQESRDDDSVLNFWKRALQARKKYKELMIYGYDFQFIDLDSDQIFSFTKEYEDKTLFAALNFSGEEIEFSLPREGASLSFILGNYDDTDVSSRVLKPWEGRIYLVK
The data set can be described thus: Enzyme kinetic studies (Lineweaver-Burk and secondary plots). The following applies: for inhibition type: Lineweaver-Burk plot: Km increased, Vmax unchanged; for Ki: estimated from plot of Km versus inhibitor concentration, read-out: inhibition constant, Ki. In kind it is biochemical. As to the method: The inhibition mode of the synthesized compounds 3 against α-glucosidase was investigated. […]. The inhibition type was indicated on the basis of Michaelis-Menten and Lineweaver-Burk plots. […] […]. The […] of enzyme solution (1 U/mL) was incubated with different concentrations (0, 5, 10, and 15 µM) of selected compounds for 15 min at 30 °C. The reaction was then started by adding different concentrations of substrate (p-nitrophenyl glucopyranoside, 1-10 mM), and change in absorbance was measured for 20 min at 405 nm by using spectrophotometer (Gen5, Power wave xs2, BioTek, America).

Data set [3] addresses T2, α-glucosidase (Saccharomyces cerevisiae, EC.3.2.1.20) (Saccharomyces cerevisiae, UniProt P53341).
T2 construct: purchased Sigma-Aldrich
The data set can be described thus: biochemical. The class given is biochemical. The following applies: for IC50: mean ± SD, at least three experiments, read-out: IC50 (µM), in vitro α-glucosidase inhibitory activity. As for the experimental part:
α-Glucosidase enzyme (EC3.2.1.20, Saccharomyces cerevisiae, 20 U/mg) and substrate (p-nitrophenyl glucopyranoside) were purchased from Sigma-Aldrich. […] Finally, the change in absorbance was measured at 405 nm by using spectrophotometer (Gen5, Power wave xs2, BioTek, America). DMSO (10% final concentration) and acarbose were used respectively as control and standard drug. The percentage of enzyme inhibitionwas calculated and IC50 values were obtained from non-linear regression curve using the Logit method.

Data set [4] in a line: Cytotoxicity studies, PANC-1. In kind it is cell-based, human. Conditions: human, PANC-1 pancreatic cancer cells. As for the experimental part:
as §1

The test system of data set [5] is human pancreatic cancer cell line PANC-1. As to the kind of experiment: Cytotoxicity studies, PANC-1. In kind it is cell-based. Conditions: PANC-1, at concentration of 100 µM. As for the experimental part:
as §1

Where two headings read alike, the source gives them in different places.

As a reminder, the melting point is the temperature, or range, at which the solid turns liquid. Usually IC50 stands for the concentration at which inhibition is half-maximal. The Ki is the equilibrium dissociation constant of an inhibitor or competing ligand from its target.

T2 sequence (P53341 whole entry): as above

With `CCOC(=O)c1c(-c2ccccc2)nn2c(-c3ccc(Cl)cc3)c(N)c(-c3ccc(OC)cc3)nc12` [3af, Ethyl 6-amino-7-(4-chlorophenyl)-5-(4-methoxyphenyl)-2-phenylpyrazolo[1,5-a]pyrimidine-3-carboxylate], the melting point was 226 to 228 °C. Further, the IC50 in data set [1] is above 200 µM. In addition, the cytotoxic activity result in data set [2] is on record as “did not possess any cytotoxic activity”. On α-glucosidase, the inhibition type entry is “competitive inhibition” and the Ki is 65 µM. Also, the IC50 in data set [3] (Table 2, compounds 3aa-ai) came to 65.5 ± 3 µM. In data set [4], this compound came in with an IC50 above 200 µM. For the same compound, the cytotoxic activity result in data set [5] is given as “did not possess any cytotoxic activity”.

Consider `Cc1ccc(-c2nc3c(C(=O)Nc4ccccc4)c(Nc4ccccc4)nn3c(-c3ccc(Br)cc3)c2N)cc1` [3d, 6-Amino-7-(4-bromophenyl)-N-phenyl-2-(phenylamino)-5-p-tolylpyrazolo[1,5-a]pyrimidine-3-carboxamide], for which the IC50 in data set [1] is above 200 µM; in data set [3] (Table 1, compounds 3a-z), 15.2 ± 0.4 µM; in data set [4], above 200 µM. Besides, the cytotoxic activity result in data set [2] and in data set [5] was “did not possess any cytotoxic activity” throughout. For the same compound, the inhibition type entry against α-glucosidase is given as “competitive inhibition”. The Ki at α-glucosidase is 12 µM. Also, the “fold more potent than acarbose” value in data set [3] (ratio of α-glucosidase IC50 values vs acarbose) is listed as “around 50 fold”.

Consider `COc1ccc(NC(=O)c2c(Nc3ccccc3)nn3c(-c4ccc(Br)cc4)c(N)c(-c4ccc(C)cc4)nc23)cc1` [3m, 6-Amino-7-(4-bromophenyl)-N-(4-methoxyphenyl)-2-(phenylamino)-5-p-tolylpyrazolo[1,5-a]pyrimidine-3-carboxamide], for which the melting point lay within 282 to 283 °C. This compound also displayed an IC50 in data set [1] above 200 µM. For the same compound, in data set [2], the cytotoxic activity result is listed as “did not possess any cytotoxic activity”. In addition, the IC50 in data set [3] (Table 1, compounds 3a-z) is 24.7 ± 1.1 µM. In addition, the 50% inhibitory concentration (IC50) in data set [4] is above 200 µM. The cytotoxic activity entry in data set [5] is reported as “did not possess any cytotoxic activity”.

Take `Cc1ccc(-c2nc3c(C(=O)Nc4ccc(Cl)cc4)c(Nc4ccccc4)nn3c(-c3ccc(Br)cc3)c2N)cc1` [3v, 6-Amino-7-(4-bromophenyl)-N-(4-chlorophenyl)-2-(phenylamino)-5-p-tolylpyrazolo[1,5-a]pyrimidine-3-carboxamide]: the melting point is 271 to 273 °C. In data set [1], the IC50 was above 200 µM. In addition, the cytotoxic activity result in data set [2] is “did not possess any cytotoxic activity”. For the same compound, the half-inhibitory concentration (IC50) in data set [3] (Table 1, compounds 3a-z) worked out at 17.6 ± 0.6 µM. In data set [4], this compound had an IC50 above 200 µM. Moreover, the cytotoxic activity entry in data set [5] was “did not possess any cytotoxic activity”.

On to `COc1ccc(-c2nc3c(C(=O)Nc4ccc(Cl)cc4)c(Nc4ccccc4)nn3c(-c3ccccc3)c2N)cc1` [3w, 6-Amino-N-(4-chlorophenyl)-5-(4-methoxyphenyl)-7-phenyl-2-(phenylamino)pyrazolo[1,5-a]pyrimidine-3-carboxamide], for which the melting point lay within 255 to 257 °C. Moreover, the IC50 in data set [3] (Table 1, compounds 3a-z) came out at 53.7 ± 3.4 µM.

`Nc1c(-c2ccc(Cl)cc2)nc2c(C(=O)Nc3ccc(Cl)cc3)c(Nc3ccccc3)nn2c1-c1ccccc1` [3x, 6-Amino-N,5-bis(4-chlorophenyl)-7-phenyl-2-(phenylamino)pyrazolo[1,5-a]pyrimidine-3-carboxamide] showed a melting point of 255 to 257 °C. In addition, in data set [3] (Table 1, compounds 3a-z), the IC50 came to 80.3 ± 5.2 µM.

The compound `Nc1c(-c2ccc(Cl)cc2)nc2c(C(=O)Nc3ccc(Cl)cc3)c(Nc3ccccc3)nn2c1-c1ccc(Cl)cc1` [3y, 6-Amino-N,5,7-tris(4-chlorophenyl)-2-(phenylamino)pyrazolo[1,5-a]pyrimidine-3-carboxamide] came in with a melting point of 268 to 270 °C. The IC50 in data set [3] (Table 1, compounds 3a-z) came to 38.2 ± 2.8 µM.

The compound `Nc1c(-c2ccc(Cl)cc2)nc2c(C(=O)Nc3ccc(Cl)cc3)c(Nc3ccccc3)nn2c1-c1cccs1` [3z, 6-Amino-N,5-bis(4-chlorophenyl)-2-(phenylamino)-7-(thiophen-2-yl)pyrazolo[1,5-a]pyrimidine-3-carboxamide] returned a melting point of 274 to 276 °C. Besides, the IC50 in data set [3] (Table 1, compounds 3a-z) came to 19.3 ± 0.9 µM.
